Assay [1] has as its target T1, α1β2γ2 rat GABAA receptors (Rattus norvegicus, UniProt P18508+P62813+P63138).
T1 construct: expressed in transfected cells; host or cells: Xenopus laevis oocytes, cRNA injection
It counts as cell-based. The following applies: for IC50: GABA EC10. How it is done: (§1) Capped cRNAs were synthesized from the linearized plasmids. A poly-A tail of about 400 residues was added to each transcript using yeast poly-A polymerase. The concentration of the cRNA was quantified on a formaldehyde gel using Radiant Red stain for visualization of the RNA. Known concentrations of RNA ladder were loaded as standard on the same gel. cRNAs were precipitated in ethanol/isoamylalcohol 19∶1, the dried pellet dissolved in water and stored at −80°C. Xenopus oocytes were prepared, injected and defollicated as described previously (Research approved by the Kantonstierarzt, Kantonaler Veterinärdienst Bern (Animal research permit BE98/12)). Briefly, Xenopus laevis oocytes were injected with 50 nL of the cRNA solution containing wild type or mutated α1, β2 and γ2 subunits at a concentration of 10 nM: 10 nM: 50 nM and then incubated in modified Barth's solution at 18°C for at least 24 h before the measurements. […] Currents were measured using a home-built two-electrode voltage clamp amplifier in combination with a XY-recorder or digitized using a PowerLab 2/20 (AD Instruments) using the computer program Chart. Tests with a model oocyte were performed to ensure linearity in the larger current range. […] Similar experiments were performed with picrotoxin. Due to the difficulty of washing out picrotoxin out from the oocytes two different oocytes were used to test the inhibition before and after the treatment with the cysteine reactive compound. Inhibition after treatment was divided by % inhibition before treatment. To test the ability of PCCP^− to protect the engineered cysteines from covalent modification by MTSET^+, we used the same sequence of perfusion except that MTSET^+ was co-applied with 1 mM PCCP^−. Results were obtained on 3–4 single oocytes for each receptor.

The target of assay [2] is T2, α1A253Cβ2γ2 GABAA receptor (Rattus norvegicus, UniProt P18508+P62813+P63138, A280C).
T2 construct: expressed in transfected cells; host or cells: Xenopus laevis oocytes, cRNA injection
Briefly: Two-electrode voltage clamp, mutant α1A253Cβ2γ2 in Xenopus oocytes. The following applies: read-out: IC50 mean ± SD for inhibition of GABA-activated current. It counts as cell-based. As for the experimental part:
as §1, with “Due to the difficulty of washing out picrotoxin out from the oocytes two different oocytes were used to test the inhibition before and after the treatment with the cysteine reactive compound. Inhibition after treatment was divided by % inhibition before treatment. To test the ability of PCCP^− to protect the engineered cysteines from covalent modification by MTSET^+, we used the same sequence of perfusion except that MTSET^+ was co-applied with 1 mM PCCP^−. Results were obtained on 3–4 single oocytes for each receptor.” left out

In assay [3] the target is T3, α1V256Cβ2γ2 GABAA receptor (Rattus norvegicus, UniProt P18508+P62813+P63138, V283C).
T3 construct: expressed in transfected cells; host or cells: Xenopus laevis oocytes, cRNA injection
The assay is described as follows: Two-electrode voltage clamp, mutant α1V256Cβ2γ2 in Xenopus oocytes. In kind it is cell-based. Particulars: for IC50: read-out: IC50 mean ± SD for inhibition of GABA-activated current. How it is done: as §1
In general terms: Two-electrode voltage clamp holds a large cell at a set potential and records current.

Assay [4] concerns the target T4, α1T260Cβ2γ2 GABAA receptor (Rattus norvegicus, UniProt P18508+P62813+P63138, T287C).
T4 construct: expressed in transfected cells; host or cells: Xenopus laevis oocytes, cRNA injection
It counts as cell-based. The following applies: read-out: IC50 mean ± SD for inhibition of GABA-activated current. As for the experimental part: as §1

For assay [5], the system named is α1T260Cβ2γ2 GABAA receptor. It counts as cell-based, rat. As for the experimental part: as §1
Assay [6] concerns the target T5, α1T261Cβ2γ2 GABAA receptor (Rattus norvegicus, UniProt P18508+P62813+P63138, T288C).
T5 construct: expressed in transfected cells; host or cells: Xenopus laevis oocytes, cRNA injection
Briefly: Two-electrode voltage clamp, mutant α1T261Cβ2γ2 in Xenopus oocytes. It counts as cell-based. The following applies: read-out: IC50 mean ± SD for inhibition of GABA-activated current. How it is done: as §1, with “Due to the difficulty of washing out picrotoxin out from the oocytes two different oocytes were used to test the inhibition before and after the treatment with the cysteine reactive compound. Inhibition after treatment was divided by % inhibition before treatment. To test the ability of PCCP^− to protect the engineered cysteines from covalent modification by MTSET^+, we used the same sequence of perfusion except that MTSET^+ was co-applied with 1 mM PCCP^−. Results were obtained on 3–4 single oocytes for each receptor.” left out

The target in assay [7] is T6, α1L263Cβ2γ2 GABAA receptor (Rattus norvegicus, UniProt P18508+P62813+P63138, L290C).
T6 construct: expressed in transfected cells; host or cells: Xenopus laevis oocytes, cRNA injection
Briefly: Two-electrode voltage clamp, mutant α1L263Cβ2γ2 in Xenopus oocytes. In kind it is cell-based. How it is done:
as §1, with “Due to the difficulty of washing out picrotoxin out from the oocytes two different oocytes were used to test the inhibition before and after the treatment with the cysteine reactive compound. Inhibition after treatment was divided by % inhibition before treatment. To test the ability of PCCP^− to protect the engineered cysteines from covalent modification by MTSET^+, we used the same sequence of perfusion except that MTSET^+ was co-applied with 1 mM PCCP^−. Results were obtained on 3–4 single oocytes for each receptor.” left out

Assay [8] has as its target T7, α1T264Cβ2γ2 GABAA receptor (Rattus norvegicus, UniProt P18508+P62813+P63138, T291C).
T7 construct: expressed in transfected cells; host or cells: Xenopus laevis oocytes, cRNA injection
The assay is described as follows: Two-electrode voltage clamp, mutant α1T264Cβ2γ2 in Xenopus oocytes. In kind it is cell-based. How it is done:
as §1, with “Due to the difficulty of washing out picrotoxin out from the oocytes two different oocytes were used to test the inhibition before and after the treatment with the cysteine reactive compound. Inhibition after treatment was divided by % inhibition before treatment. To test the ability of PCCP^− to protect the engineered cysteines from covalent modification by MTSET^+, we used the same sequence of perfusion except that MTSET^+ was co-applied with 1 mM PCCP^−. Results were obtained on 3–4 single oocytes for each receptor.” left out

Assay [9] has as its target T8, α1T267Cβ2γ2 GABAA receptor (Rattus norvegicus, UniProt P18508+P62813+P63138, T294C).
T8 construct: expressed in transfected cells; host or cells: Xenopus laevis oocytes, cRNA injection
The assay is described as follows: Two-electrode voltage clamp, mutant α1T267Cβ2γ2 in Xenopus oocytes. In kind it is cell-based. As for the experimental part: as §1, with “Due to the difficulty of washing out picrotoxin out from the oocytes two different oocytes were used to test the inhibition before and after the treatment with the cysteine reactive compound. Inhibition after treatment was divided by % inhibition before treatment. To test the ability of PCCP^− to protect the engineered cysteines from covalent modification by MTSET^+, we used the same sequence of perfusion except that MTSET^+ was co-applied with 1 mM PCCP^−. Results were obtained on 3–4 single oocytes for each receptor.” left out

Assay [10] deals with T9, α1β2γ2 rat GABAA receptors (Rattus norvegicus).
T9 construct: expressed in transfected cells; host or cells: Xenopus laevis oocytes, cRNA injection
Briefly: Concentration inhibition curve, first receptor named in b22 / Figure 4A. In kind it is cell-based. Particulars: GABA EC10; n = 4; receptor printed as α1β2γ2. How it is done:
as §1, with “Due to the difficulty of washing out picrotoxin out from the oocytes two different oocytes were used to test the inhibition before and after the treatment with the cysteine reactive compound. Inhibition after treatment was divided by % inhibition before treatment. To test the ability of PCCP^− to protect the engineered cysteines from covalent modification by MTSET^+, we used the same sequence of perfusion except that MTSET^+ was co-applied with 1 mM PCCP^−. Results were obtained on 3–4 single oocytes for each receptor.” left out

In assay [11] the target is T10, α1β2δ rat GABAA receptors (Rattus norvegicus, UniProt P18506+P62813+P63138).
T10 construct: expressed in transfected cells; host or cells: Xenopus laevis oocytes, cRNA injection
Briefly: Concentration inhibition curve, α1β2δ GABAA receptors in Xenopus oocytes. In kind it is cell-based. Particulars: GABA EC10; n = 4.

Assay [12] has as its system Glycine homomeric receptors. The assay is described as follows: Inhibition of homomeric glycine receptors expressed in Xenopus oocytes. It counts as cell-based. The following applies: compared with GABAA receptors.
The subject of assay [13] is Glycine heteromeric receptors. The assay is described as follows: Inhibition of heteromeric glycine receptors expressed in Xenopus oocytes. It counts as cell-based. The following applies: compared with GABAA receptors.
For a further assay, the target named is ELIC (Dickeya chrysanthemi, UniProt P0C7B7). The following applies: read-out: Concentration required for half-maximal inhibition. How it is done: as §1, with “Due to the difficulty of washing out picrotoxin out from the oocytes two different oocytes were used to test the inhibition before and after the treatment with the cysteine reactive compound. Inhibition after treatment was divided by % inhibition before treatment. To test the ability of PCCP^− to protect the engineered cysteines from covalent modification by MTSET^+, we used the same sequence of perfusion except that MTSET^+ was co-applied with 1 mM PCCP^−. Results were obtained on 3–4 single oocytes for each receptor.” left out

The test system of assay [14] is RDL Drosophila GABAA receptors, mutation A302S versus wild type. The assay is described as follows: Concentration inhibition curves in wild type and mutant RDL Drosophila GABAA receptor. In kind it is cell-based. The following applies: GABA EC10.
In another assay the test system is non-injected oocytes. Briefly: Currents induced in non-injected Xenopus oocytes. It counts as cell-based, Xenopus laevis. The following applies: holding potential −80 mV.
Assay [15] relates to cysteine mutant α1β2γ2 GABAA receptors. Briefly: Protection of engineered cysteines from covalent modification by MTSET^+ + GABA. In kind it is cell-based, rat. The following applies: 1 mM inhibitor present during MTSET^+ + GABA application. As for the experimental part:
as §1, with “Due to the difficulty of washing out picrotoxin out from the oocytes two different oocytes were used to test the inhibition before and after the treatment with the cysteine reactive compound. Inhibition after treatment was divided by % inhibition before treatment. To test the ability of PCCP^− to protect the engineered cysteines from covalent modification by MTSET^+, we used the same sequence of perfusion except that MTSET^+ was co-applied with 1 mM PCCP^−. Results were obtained on 3–4 single oocytes for each receptor.” left out

The mark [16] stands for this setting: wild type, end of 1 min co-application, −80 mV, read-out: IC50 mean ± SD for inhibition of GABA-activated current.
Setting [17] is: read-out: IC50 mean ± SD for inhibition of GABA-activated current.

Values joined by “and” are separate entries in the source; they are usually repeats but may differ in a detail not shown here. Equal values may be shown once. Read-outs that look alike come from different tables or passages of the source.

`C[N+](C)(C)CCSS(C)(=O)=O` [MTSET^+, reference compound]: the “Effect of treatment with cysteine reactive compound on wild type receptors” value in assay [1] (wild type, preliminary experiments) is “unaffected”.

With `N#CC1=C(C#N)C(C#N)C(C#N)=C1C#N` [PCCP^−, pentacyanocyclopentdienyl anion], in assay [1] (GABA EC1, apparent desensitization and off-current), the “Concentrations inducing an open-channel block” value is listed as > 1 µM. Also, the “Inhibition of recombinant α1β2γ2 GABAA receptors, preliminary evaluation” value in assay [1] (compounds 1–4 tested) is on record as “highly active”. Moreover, in assay [1] (currents elicited by low GABA (EC1), highly variable between oocytes), the “Concentrations at which currents were stimulated” value lay within 0.3 to 10 µM. The “δ, fraction of the voltage field sensed by the blocker from the outside of the membrane” value in assay [1] (estimated with Woodhull equation from IC50 at −120, −80, −40 mV) was ~0.7. The IC50 in assay [1] (membrane potential −40 mV, n = 3, read-out: IC50) is 1800 ± 800 nM; in assay [1] (membrane potential −80 mV, voltage-dependence experiment, n = 3, read-out: IC50), 6300 ± 1300 nM; in assay [1] (membrane potential −120 mV, n = 3, read-out: IC50), 16200 ± 1300 nM; in assay [1] (setting [16]) it was 2600 nM and 2580 nM; in assay [2], 2630 ± 310 nM; in [3], 62.2 ± 22.4 µM. Also, the IC50 worked out at 850 ± 460 nM in assay [4]; 46.4 ± 7.25 µM in assay [6]; 3.15 ± 0.48 µM in assay [8] (setting [17]); 770 ± 110 nM in assay [9] (setting [17]); 12.5 ± 4.8 µM in assay [10]; 710 ± 280 nM in assay [11]. For the same molecule, at ELIC, the IC50 was ~100 µM. The “Shift of the GABA concentration response curve” value in assay [1] (presence of 2 µM or 10 µM PCCP^−, currents after 1 min GABA) is “leftward shift”. The “Effect of MTSET^+ + GABA treatment on the affinity for PCCP^−” value in assay [1] (wild type, treatment applied for 1 min) was “no effect”. Also, the “Change in % inhibition after MTSET^+ + GABA treatment” value in assay [3] is “significant increase”; in [5], “significant increase”; in assay [7] (printed α1T263Cβ2γ2, 5 mM MTSET^+ + 100 µM GABA, inhibitor at about IC50), “significant increase”; in [8] it was “significant increase”; in [9], “significant increase”. The “Change in ratio of % inhibition after/before MTSET^+ treatment in the absence of GABA” value in assay [7] is recorded as “significant increase”. The “Inhibition by PCCP^−” value in assay [12] and in assay [13] was “similarly inhibited” each time. Also, the “Reduction in sensitivity (difference in IC50) between wild type and mutant receptors” value in assay [14] was “about 2 fold”. The “Concentration inducing a current in non-injected oocytes” value in the assay on non-injected oocytes was ≥ 10 µM. The “Prevention of the MTSET^+ + GABA induced change in inhibitor sensitivity” value in assay [15] was “could be prevented”.

picrotoxin [reference compound]: the IC50 in assay [1] (setting [16]) was found to be 2020 ± 890 nM; in assay [3] it was 0.74 ± 0.36 µM; in assay [4] (α1T260C mutant, GABA EC10, −80 mV, before MTSET^+ treatment) it was 1310 ± 410 nM. Further, the “Change in % inhibition after MTSET^+ + GABA treatment” value in assay [3] is reported as “significant decrease”; in [5] (α1T260C mutant, 5 mM MTSET^+ + 100 µM GABA, inhibitor at about IC50), “significant decrease”. In assay [14], the “Reduction in sensitivity (difference in IC50) between wild type and mutant receptors” value is recorded as 7 fold. Further, the “Prevention of the MTSET^+ + GABA induced change in inhibitor sensitivity” value in assay [15] is given as “could not be prevented”.

The values are drawn from paper PMC4153658, “A Pentasymmetric Open Channel Blocker for Cys-Loop Receptor Channels” (PLoS ONE, 2014).
